From US20100003287A1, “Compositions and Methods Relating to Treatment of Cancer and Infectious Diseases” (THE PROVOST, FELLOWS AND SCHOLARS OF THE COLL. OF THE HOLY …, priority 2005, published 2010) come the findings set out here.

Assay [1] concerns bone marrow-derived DC. Put plainly: CpG-stimulated DC with Cox-2 inhibitor NS-398, cytokine ELISA. In kind it is cell-based, C57BL/6 mice. In general terms: In an ELISA, binding on a coated surface is turned into a signal by an enzyme label.
Method: (§1) Bone-marrow derived immature DC (BMDC) were generated by cultivation of extracted bone marrow cells with GM-CSF (40 ng/ml) for 10 days. BMDC from either BALB/c or C57BL/6 mice were incubated with 1 ng/ml-10 μg/ml of the TLR agonists, Pam3CSK4, Zymosan, LPS, Flagellin, PolylC, CpG-OCDN or medium only.
The subject of assay [2] is PGE2 production by dendritic cells. Kind of assay: TLR agonist induced PGE2 production by DC (ELISA). The following applies: 24 hours. Type of assay: cell-based. As to the method:
Bone marrow-derived dendritic cells (DC) were stimulated in vitro with CpG (5 μg) or the ERK inhibitor, U0126 (5 μM), or both for 24 hours. Supernatants were removed and PGE2 concentrations determined by ELISA. **p<0.01 CpG+p38 inhibitor versus CpG by ANOVA (FIG. 25).
Bone marrow-derived DC were stimulated with CpG (5 μg) alone or in the presence of the Cox-2 inhibitor, NS-398. After 24 hours, supernatants were removed and concentrations of PGE2 (FIG. 26(a)) were determined by ELISA. *p<0.05 CpG+p38 inhibitor versus CpG by ANOVA.
Supernatants were removed and PGE2 concentrations determined by ELISA. *p<0.05 CpG+p38 inhibitor versus CpG by ANOVA (FIG. 27).

Assay [3] relates to IFN-gamma- and IL-10-secreting T cells. Kind of assay: DC transfer experiment (KLH, CpG and inhibitors), T cell responses in vivo. Also noted: species or system C57BL/6 mice. The following applies: DC with KLH 5 μg, CpG 5 μg and inhibitors (NS-398 5 μM, SB203580 1 μM, U0126 5 μM) into footpad; day 5 cells restimulated with KLH. As to the method: 2.5×10^5 treated cells were injected into each footpad. Popliteal lymph nodes and spleens were removed after 5 days, and single cell suspensions were restimulated with KLH (2, 10, 50 μg/ml). S/N were removed after 3 days, and aliquots were measured for IFN-gamma and IL-10 by ELISA.
2.5×10^5 treated cells were injected into each footpad of 57BL-6 mice. Popliteal lymph nodes and spleens were removed after 5 days, and single cell suspensions were restimulated with KLH (2, 10, 50 μg/ml). Supernatants were removed after 3 days, and IFN-gamma and IL-10 concentrations quantified by ELISA (FIG. 13).

Assay [4] has as its system bone marrow-derived DC. Kind of assay: CpG-stimulated DC with Cox-2 inhibitor NS-398, cytokine mRNA RT-PCR. Type of assay: cell-based, C57BL/6 mice.
The test system of the next assay is CD80 on CD11c+ DC. Put plainly: CD80 expression on DC (cytofluorometric analysis). The note with it: HSP70 vaccine 5 mg/ml, NS398 5 mM, 24 hours, gated on CD11c+. Type of assay: cell-based. As to the method: Bone marrow derived DC were incubated with medium only (Control), HSP70 vaccine (5 mg/ml), the Cox-2 inhibitor NS398 (5 mM), HSP70 and Cox-2 inhibitor or LPS (10 ng/ml). After 24 hours cells were labelled with anti-CD80 and CD11C antibodies and cytofluorometric analysis performed. Results represent mean fluorescence intensity (MFI) on cells that were gated on the CD11c+ DC population (FIG. 24).

In assay [5] the test system is immature bone marrow-derived DC. Kind of assay: DC activation by TLR ligands, cytokine ELISA. The note with it: 1 ng/ml-10 μg/ml TLR ligand, 24 h. As to the method: After 24 h, supernatants were removed and IL-10, IL-12p40 and IL-12p70 concentrations determined by ELISA. NT, not tested (FIG. 9).
Assay [6] deals with bone marrow-derived DC. The note with it: for IL-10 production from CpG-ODN- or LPS-stimulated DC: inhibitor 1 h (U0126 1.25-5 μM, SB203580 0.1-10 μM) before CpG-ODN 5 μg/ml or LPS 100 ng/ml, 24 h; for IL-12p70 production from TLR ligand-stimulated DC: inhibitor pre-incubation, LPS or CpG-ODN.
Method: as §1
DC were pre-incubated for 1 h with the MEK 1/2 inhibitor (U0126) and then incubated for 15 min with medium only or with Pam3Cys, Zymosan, LPS, Flagellin, or CpG-ODN (1 or 5 μg/ml). […] DC were stimulated with medium only (0) or for 0.5, 1, 2, 4, 8 or 12 h with LPS (100 ng/ml). […] Cells treated with DMSO were used as negative controls.
Superntants were removed, and aliquots was measured for IL-10, IL-12p70 and IL-6 by ELISA (FIG. 11).
The subject of the next assay is ERK. Type of assay: cell-based, mice. As to the method:
In certain experiments, the ERK or p38 inhibitors were added 1 hr before the TLR ligands. Cell lysates were resolved by SDS-PAGE, transferred to nitrocellulose membranes and blotted with antibodies specific for phospho-p38 (pp38; Cell Signal Technology, Mass., USA), or phospho-ERK (pERK; Santa Cruz Biotechnologies, USA) and a horseradish peroxidase-linked secondary antibody. The nitrocellulose was stripped and probed with antibodies specific for total p38 or total ERK.

Assay [7] deals with draining lymph node cells. Kind of assay: Immunisation with KLH and TLR ligands, antigen-specific cytokine production by lymph node cells (ELISA). In kind it is in vivo, BALB/c mice. The note with it: s.c. KLH 5 μg alone or with adjuvant; lymph node cells day 7, KLH 50 μg/ml, 3 days.
The test system of assay [8] is B16 tumour cells. Kind of assay: Therapeutic DC vaccine pulsed with B16 cells with or without CpG and p38 inhibitor. The following applies: for protective efficacy of tumour vaccine (tumour volumes): 5×10^5 DC days 3, 10 and 17. Type of assay: in vivo, C57BL/6 mice. An excerpt: Tumour growth was routinely monitored. Results represent tumour volumes for individual mice (FIG. 29).
Tumour growth was routinely monitored. Results represent tumour volumes for individual mice (FIG. 30).
Mice were routinely monitored for survival. Numbers in parentheses represent statistical difference versus control group (FIG. 31).

Another assay deals with Bordetella pertussis. Kind of assay: Acellular pertussis vaccine, B. pertussis aerosol challenge, lung CFU counts. In kind it is in vivo. The following applies: mice, i.p. 0 and 4 weeks, 0.02 human dose vaccine, CpG 5 μg, SB203580 50 μM; aerosol challenge 2 weeks later.
The test system of a further assay is spleen mononuclear cells. Kind of assay: Spleen cell IFN-gamma and IL-10 after acellular pertussis vaccination. In kind it is in vivo, mice. The note with it: added to acellular pertussis vaccine with CpG 5 μg, SB203580 50 μM.
Assay [9] relates to bone marrow-derived DC. Kind of assay: Cytokines from DC treated with B16 tumour vaccine, CpG and p38 inhibitor (ELISA). Type of assay: cell-based. The following applies: DC with heat shocked and irradiated B16 cells 4 hours, CpG 5 μg, SB 203580 5 μM, 24 hours. As to the method: Supernatants were removed after 24 hours and IL-10, IL-12p40, IL-12p70 and IL-23 concentrations were determined by ELISA. *p<0.05; ***p<0.0001, CpG+p38 inhibitor versus GpG by ANOVA.

In assay [10] the test system is CD4+ T cells from D011.10 OVA-TCR Tg mice. Kind of assay: In vitro activation of OVA-TCR T cells with modulated DC. The following applies: DC pulsed with OVA peptide 5 μg, CpG 10 μg alone or with SB203580 1 or 5 μM, 24 h; T cells:DC 10:1. Type of assay: cell-based, BALB/c mice. As to the method: DC from BALB/c were incubated with OVA Class II peptide (5 μg). […] D011.10 OVA-TCR T cells were then added to the BMDC (10:1). Supernatants were removed after 3 and 11 days, and aliquots were measured for IL-10-and IFN-gamma by ELISA.
Bone marrow-derived DC from BALB/c were incubated with OVA Class II peptide (5 μg). […] Purified CD4+ T cells from D011.10 OVA-TCR Tg mice were stimulated with the DC (10:1) and supernatants were removed 3 days after antigen stimulation and IL-10 and IFNgamma quantified by ELISA (FIG. 12).

Another assay relates to IL-1 beta in lungs. Put plainly: Lung IL-1 beta after B. pertussis challenge of immunized mice. In kind it is in vivo. The following applies: added to acellular pertussis vaccine with CpG 5 μg; SB203580 50 μM; 4 hours after challenge.
Assay [11] relates to B16 tumour cells. Kind of assay: Direct tumour therapy with CpG and Celecoxib. Type of assay: in vivo, C57BL/6 mice. The following applies: CpG 20 μg, Celecoxib 500 μg or both s.c. at tumour site, days 3, 5 and 7. As to the method:
C57BL/6 mice were challenged with 2×10^5 tumour cells s.c. and injected s.c. on days 3, 5 and 7 with either CpG (10 or 20 μg), the Cox-2 inhibitor Celecoxib (100 or 500 μg) or a combination of both at the tumour site. Mice were routinely monitored for tumour growth and survival. Tumour size was measured in two dimensions by callipers and determined by the following formula: (width^2×length)×π/6 where width is the lesser value. Mice were killed when tumour a length measured greater than 15 mm.
Mice were routinely monitored for tumour growth (FIG. 19).
Tumour volumes were routinely monitored (FIG. 20).
C57BL/6 mice were challenged with 2×10^5 tumour cells s.c. and injected s.c. on days 3, 5 and 7 with either CpG (20 μg), the Cox-2 inhibitor Celecoxib (500 μg) or a combination of both at the tumour site. Mice were routinely monitored for tumours and survival (FIG. 21).

Setting [12] is: CpG 10 μg alone or with various concentrations of NS-398, 24 h.
The mark [13] stands for this setting: CpG 5 μg with inhibitor (U0126 5 μM or NS-398).
The mark [14] stands for this setting: CpG 10 μg alone or with NS-398 1 or 10 μM, 24 h.

Turning to `CS(=O)(=O)Nc1ccc([N+](=O)[O-])cc1OC1CCCCC1` [NS-398], the “CpG-induced IL-10 production by dendritic cells” value in the assay with bone marrow-derived DC [1] (CpG 5 μg with NS-398, 24 h) is reported as “reverses”. Further, in the assay on bone marrow-derived DC [1] (setting [12]), the “IL-10 production by DC” value is given as “suppressed” and the “IL-12p40 (IL-12) production by DC” value was “enhanced”. For the same compound, in assay [2] (setting [13]), the “CpG-induced PGE2 production by dendritic cells” value (“CpG-induced PGE2 production” for short) is recorded as “reverses”. In assay [3], the “induction of IFN-gamma-secreting T cells (Th1) in vivo” value (from here on “induction … (Th1) in vivo”) is “enhanced” and the “induction of IL-10 secreting T cells in vivo” value is recorded as “suppressing”. Also, in the assay with bone marrow-derived DC [4] (setting [14]), the “IL-12p35 mRNA expression in DC” value was “enhanced” and the “IL-12p40 mRNA expression in DC” value is on record as “enhanced”. Also, the “IL-27p28 mRNA expression in DC” value with bone marrow-derived DC [4] (setting [12]) is “enhanced”. In addition, the “CpG-induced IL-10 mRNA expression in DC” value in the assay with bone marrow-derived DC [4] (CpG 10 μg with NS-398, 24 h) is recorded as “suppressed”. Moreover, the “CD80 expression (mean fluorescence intensity)” value with CD80 on CD11c+ DC is “neither Cox-2 nor HSP70 alone enhanced”.

For Flagellin, in [5], the “IL-10 production from DC” value was “induced production”, the “IL-12p40 production from DC” value was “induced production” and the “IL-12p70 production from DC” value is on record as “induced production”.

Take Pam3CSK4: in [5], the “IL-10 production from DC” value was “induced production”, the “IL-12p40 production from DC” value is “induced production” and the “IL-12p70 production from DC” value is “induced production”.

Consider `N#CC(=C(/N)Sc1ccccc1N)/C(C#N)=C(\N)Sc1ccccc1N` [U0126], for which the “enhancement of IL-12p70 production in DC from IL-10−/− mice” value in the assay on bone marrow-derived DC [6] (data not shown) is reported as “retained”. In addition, in the assay on bone marrow-derived DC [6], the “IL-10 production from CpG-ODN- or LPS-stimulated DC” value is “suppressed” and the “IL-12p70 production from TLR ligand-stimulated DC” value is “enhanced”. In the assay on ERK, the “TLR-ligand induced ERK phosphorylation” value was “inhibited”. Besides, the “CpG-induced PGE2 production” value in assay [2] (setting [13]) is on record as “reverses”. In addition, in assay [3], the “induction … (Th1) in vivo” value is reported as “suppressed” and the “induction of IL-10 secreting T cells in vivo” value was “suppressed”.

Regarding lipopolysaccharide [LPS], in the assay on ERK (LPS 100 ng/ml, 0.5-12 h), the “time for which LPS-induced ERK phosphorylation was still evident” value is reported as “up to 8 hours” and the “time of maximal LPS-induced ERK phosphorylation” value was 30 min. Besides, in [7], the “KLH-specific IFN-gamma production” value is on record as “high concentrations” and the “KLH-specific IL-4 production” value is reported as “low or undetectable”. For the same compound, in assay [5], the “IL-10 production from DC” value is on record as “induced production”, the “IL-12p40 production from DC” value is reported as “induced production” and the “IL-12p70 production from DC” value is recorded as “induced production”.

`C[S+]([O-])c1ccc(-c2nc(-c3ccncc3)c(-c3ccc(F)cc3)[nH]2)cc1` (stereo not shown) [SB203580]: the survival of mice entry in the assay on B16 tumour cells [8] (DC activated with killed whole B16 cells alone or with CpG 5 μg, SB 203580 5 μM, days 3, 10 and 17) is “enhances survival”. Moreover, the “protective efficacy of tumour vaccine (tumour volumes)” value in the assay with B16 tumour cells [8] (DC activated with killed whole B16 cells and CpG 5 μg, SB203580 5 μM) is “enhances”. Also, the “protective efficacy of tumour vaccine (tumour volumes)” value in the assay with B16 tumour cells [8] (DC activated with killed whole B16 cells, SB 203580 5 μM) is recorded as “enhances”. The “protective efficacy against B. pertussis challenge” value with Bordetella pertussis is “significantly enhances”. For the same compound, in the assay with bone marrow-derived DC [6], the “IL-10 production from CpG-ODN- or LPS-stimulated DC” value is “inhibited” and the “IL-12p70 production from TLR ligand-stimulated DC” value is recorded as “enhanced”. Further, in the assay with spleen mononuclear cells, the IFN-gamma responses result is given as “enhanced” and the IL-10 responses entry is given as “reduced”. Moreover, the “CpG-induced PGE2 production” value in assay [2] (DC treated with heat shocked and irradiated B16 cells 4 hours, CpG 5 μg, SB 203580 5 μM) was “reverses”. Further, in the assay on bone marrow-derived DC [9], the “CpG-induced IL-10 production by dendritic cells” value is listed as “reverses”, the “IL-12 production by dendritic cells” value is “enhancing” and the IL-23 production entry is “not affected”. Further, in assay [10], the “induction of IFN-gamma-secreting T cells” value is reported as “enhanced” and the “induction of IL-10 secreting T cells” value is reported as “suppressed”. In addition, in assay [3], the “induction … (Th1) in vivo” value was “enhanced” and the “induction of IL-10 secreting T cells in vivo” value was “suppressing”. Moreover, the “local IL-1 beta in the lungs” value in the assay with IL-1 beta in lungs is given as “enhanced”.

`Cc1ccc(-c2cc(C(F)(F)F)nn2-c2ccc(S(N)(=O)=O)cc2)cc1` [Celecoxib]: the mice survived with B16 tumour cells [11] amounted to 20%.
